Laboratory results as given in the Kinase Knowledgebase extract (Sharma et al. 2016).

Molecular target: PIK3CA (human) (UniProt P42336)
Experiment: Inhibition of PIK3CA Kinase Activity

Sequence of PIK3CA (human) (P42336 whole entry, looked up): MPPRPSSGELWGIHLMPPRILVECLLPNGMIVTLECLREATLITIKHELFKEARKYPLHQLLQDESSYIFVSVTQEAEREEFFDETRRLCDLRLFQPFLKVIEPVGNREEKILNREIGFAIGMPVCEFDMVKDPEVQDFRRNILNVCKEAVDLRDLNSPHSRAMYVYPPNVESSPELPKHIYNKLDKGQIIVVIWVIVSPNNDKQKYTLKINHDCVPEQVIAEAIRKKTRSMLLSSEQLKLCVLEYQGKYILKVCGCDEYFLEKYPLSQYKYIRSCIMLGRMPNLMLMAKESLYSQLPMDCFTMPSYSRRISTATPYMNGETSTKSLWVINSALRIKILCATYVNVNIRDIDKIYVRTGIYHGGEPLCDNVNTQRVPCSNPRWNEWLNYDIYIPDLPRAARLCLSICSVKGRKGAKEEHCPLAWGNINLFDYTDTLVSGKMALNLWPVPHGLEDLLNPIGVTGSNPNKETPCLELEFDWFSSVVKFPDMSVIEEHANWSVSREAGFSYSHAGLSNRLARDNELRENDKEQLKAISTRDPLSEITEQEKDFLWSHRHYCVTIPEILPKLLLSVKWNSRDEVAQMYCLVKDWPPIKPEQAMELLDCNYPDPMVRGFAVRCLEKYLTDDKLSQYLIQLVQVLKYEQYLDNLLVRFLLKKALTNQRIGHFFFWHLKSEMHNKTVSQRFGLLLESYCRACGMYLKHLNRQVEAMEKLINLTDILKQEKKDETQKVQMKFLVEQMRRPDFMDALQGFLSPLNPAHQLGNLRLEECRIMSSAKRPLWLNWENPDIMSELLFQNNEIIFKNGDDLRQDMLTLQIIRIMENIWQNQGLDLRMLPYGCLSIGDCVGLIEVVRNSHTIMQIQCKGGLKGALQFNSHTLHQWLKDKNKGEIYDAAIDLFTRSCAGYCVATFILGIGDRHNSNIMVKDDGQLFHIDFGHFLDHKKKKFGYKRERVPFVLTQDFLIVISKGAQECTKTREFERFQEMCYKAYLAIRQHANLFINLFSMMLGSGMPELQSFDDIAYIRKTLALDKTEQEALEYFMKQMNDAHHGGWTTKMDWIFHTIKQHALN

IC50, < 1 µM:
Nc1cnc(-c2nc(N3CCOCC3)nc3c2ncn3C2CCc3ccccc32)cn1 (stereo not given)
CCC(C#N)n1cnc2c(-c3cnc(N)cn3)nc(N3CCOCC3)nc21 (stereo not given)
Nc1cnc(-c2nc(N3CCOCC3)nc3c2ncn3C2CCOC2)cn1 (stereo not given)
Nc1cnc(-c2nc(N3CCOCC3)nc3[nH]cnc23)cn1
Nc1cnc(-c2nc(N3CCOCC3)nc3c2ncn3C2CCCC2)cn1
Cc1cccc(-n2cnc3c(-c4cnc(N)cn4)nc(N4CCOCC4)nc32)c1
Nc1cnc(-c2nc(N3CCOCC3)nc3c2ncn3C2CCC2)cn1
CC(C1CC1)n1cnc2c(-c3cnc(N)cn3)nc(N3CCOCC3)nc21 (stereo not given)
Nc1cnc(-c2nc(N3CCOCC3)nc3c2nc(Br)n3C2CCOC2)cn1 (stereo not given)
Nc1cnc(-c2nc(N3CCOCC3)nc3c2ncn3Cc2ccccc2)cn1
CC(C)C(C)n1cnc2c(-c3cnc(N)cn3)nc(N3CCOCC3)nc21 (stereo not given)
COCC(C)n1cnc2c(-c3cnc(N)cn3)nc(N3CCOCC3)nc21 (stereo not given)
Nc1cnc(-c2nc(N3CCOCC3)nc3c2ncn3-c2ccccc2)cn1
Nc1cnc(-c2nc(N3CCOCC3)nc3c2ncn3C2Cc3ccccc3C2)cn1
CCC(C)n1cnc2c(-c3cnc(N)cn3)nc(N3CCOCC3)nc21 (stereo not given)
Nc1cnc(-c2nc(N3CCOCC3)nc3c2ncn3C2CCN(c3ccccc3)CC2)cn1
CCC(C)n1c(Br)nc2c(-c3cnc(N)cn3)nc(N3CCOCC3)nc21 (stereo not given)
CC1CCCCC1n1cnc2c(-c3cnc(N)cn3)nc(N3CCOCC3)nc21 (stereo not given)
Nc1cnc(-c2nc(N3CCOCC3)nc3c2ncn3C2CCN(c3ccccc3)C2)cn1 (stereo not given)
Nc1cnc(-c2nc(N3CCOCC3)nc3c2ncn3C2CCc3ccccc3C2)cn1 (stereo not given)
Nc1cnc(-c2nc(N3CCOCC3)nc3c2ncn3CC2CC2)cn1
CCC(CC)n1cnc2c(-c3cnc(N)cn3)nc(N3CCOCC3)nc21
CC(C)(C)Cn1cnc2c(-c3cnc(N)cn3)nc(N3CCOCC3)nc21
Nc1cnc(-c2nc(N3CCOCC3)nc3c2ncn3-c2ccc3c(c2)OCO3)cn1
Nc1cnc(-c2nc(N3CCOCC3)nc3c2ncn3Cc2c(F)cccc2F)cn1
